Test results: ChEMBL document CHEMBL1149662, “Design and synthesis of a library of tertiary amides: evaluation as mimetics of the melanocortins' active core” (Bioorg Med Chem, 2007)

Experiments:
[1] = molecular target: Melanocyte-stimulating hormone receptor (Mus musculus, UniProt Q01727); assay: Displacement of [125I]NDP-MSH from MC1 receptor in mouse B16 cells; format: cell-based
Melanocortin receptor 4 = Melanocortin receptor 4 (Homo sapiens, UniProt P32245); assay: Displacement of [125I]NDP-MSH from human recombinant MC4 receptor expressed in Sf9 cells
Melanocortin receptor 5 = Melanocortin receptor 5 (Homo sapiens, UniProt P33032); assay: Displacement of [125I]NDP-MSH from human recombinant MC5 receptor expressed in Sf9 cells
Melanocortin receptor 3 = Melanocortin receptor 3 (Homo sapiens, UniProt P41968); assay: Displacement of [125I]NDP-MSH from human recombinant MC3 receptor expressed in Sf9 cells
Chain of Melanocortin receptor 3 (P41968 whole entry): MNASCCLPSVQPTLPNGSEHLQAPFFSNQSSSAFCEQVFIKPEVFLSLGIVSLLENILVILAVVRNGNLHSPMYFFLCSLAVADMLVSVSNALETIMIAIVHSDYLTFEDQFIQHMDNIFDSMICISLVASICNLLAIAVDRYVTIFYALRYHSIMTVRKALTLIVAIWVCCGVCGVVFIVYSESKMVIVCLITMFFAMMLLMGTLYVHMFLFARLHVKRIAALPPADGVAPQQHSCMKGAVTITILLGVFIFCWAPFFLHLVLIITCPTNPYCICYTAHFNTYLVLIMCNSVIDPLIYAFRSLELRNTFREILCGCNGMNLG

Chain of Melanocortin receptor 5 (P33032 whole entry): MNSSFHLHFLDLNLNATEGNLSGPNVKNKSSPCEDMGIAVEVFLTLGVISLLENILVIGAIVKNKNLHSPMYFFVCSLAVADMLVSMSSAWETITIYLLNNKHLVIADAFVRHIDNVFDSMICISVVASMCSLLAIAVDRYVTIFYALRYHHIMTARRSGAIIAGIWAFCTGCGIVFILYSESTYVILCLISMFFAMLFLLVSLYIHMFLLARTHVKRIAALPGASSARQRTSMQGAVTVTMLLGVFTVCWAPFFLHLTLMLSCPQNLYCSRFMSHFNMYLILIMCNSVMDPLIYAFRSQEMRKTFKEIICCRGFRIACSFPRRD
Chain of Melanocortin receptor 4 (P32245 whole entry): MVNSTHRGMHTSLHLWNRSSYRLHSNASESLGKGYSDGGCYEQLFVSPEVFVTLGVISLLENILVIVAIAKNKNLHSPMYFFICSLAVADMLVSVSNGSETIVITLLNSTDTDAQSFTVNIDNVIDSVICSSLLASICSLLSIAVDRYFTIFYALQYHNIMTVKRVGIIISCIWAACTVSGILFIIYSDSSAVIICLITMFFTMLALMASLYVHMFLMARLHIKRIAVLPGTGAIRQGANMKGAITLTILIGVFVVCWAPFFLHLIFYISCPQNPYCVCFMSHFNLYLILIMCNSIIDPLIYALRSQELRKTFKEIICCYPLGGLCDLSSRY
Chain of Melanocyte-stimulating hormone receptor (Q01727 whole entry): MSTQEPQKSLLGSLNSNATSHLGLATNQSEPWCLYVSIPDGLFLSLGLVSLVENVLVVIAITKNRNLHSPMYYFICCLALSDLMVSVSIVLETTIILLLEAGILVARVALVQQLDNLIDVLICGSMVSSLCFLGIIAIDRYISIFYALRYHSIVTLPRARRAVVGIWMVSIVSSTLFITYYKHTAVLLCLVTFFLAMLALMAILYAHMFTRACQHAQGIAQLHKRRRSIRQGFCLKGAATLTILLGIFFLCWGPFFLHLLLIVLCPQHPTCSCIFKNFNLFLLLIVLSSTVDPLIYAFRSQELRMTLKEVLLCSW

Compound	Ki [1] [µM]	Ki (Melanocortin receptor 4) [µM]	Ki (Melanocortin receptor 5) [µM]	Ki (Melanocortin receptor 3) [µM]
NCCCCCN(Cc1ccccc1)C(=O)[C@H](N)Cc1ccc2ccccc2c1	5	13	24	41
COc1ccc(CN(C(=O)CCCc2c[nH]c3ccccc23)C2CCC(CC3CCC(N)CC3)CC2)cc1Br (centres undefined)	2.9	4.8	278	9.3
NC1CCC(CC2CCC(N(Cc3c(Cl)cccc3Cl)C(=O)CCCc3c(Cc4ccc(O)cc4)[nH]c4ccccc34)CC2)CC1 (centres undefined)	1.6	5.3	22	27
C=C(Br)CN(C(=O)CCCc1c[nH]c2ccccc12)C1CCC(CC2CCC(N)CC2)CC1 (stereo in doubt; form 4)	0.81	3.8	5.5	27
NCCCN(CCc1ccccc1)C(=O)CCCc1c[nH]c2ccccc12	21	164	33	30
CCN(CC)c1ccc(CN(CCCCCN)C(=O)CCCc2c[nH]c3ccccc23)cc1	6.8	25	34	33
N[C@H]1CC[C@H](NC(=O)NC2CCCC(N(Cc3ccccc3)C(=O)CCCc3c[nH]c4ccccc34)C2)CC1 (some centres undefined)	2.7	7.3	37	59
Cc1cccc(CN(C(=O)CCCc2c[nH]c3ccccc23)C2CCC(CC3CCC(N)CC3)CC2)c1 (centres undefined)	1.3	3	12	22
CC1CC(CC2CCC(N(Cc3ccccc3)C(=O)CCCc3c[nH]c4ccccc34)C(C)C2)CCC1N (stereo in doubt; form 2)	0.87	3.2	4.8	22
NCCCN(Cc1ccc2ccccc2c1)C(=O)CCCc1c[nH]c2ccccc12	3.7	19	23	26
N[C@H]1CC[C@H](N(Cc2ccccc2)C(=O)CCCc2c[nH]c3ccccc23)CC1	4.3	8.4	40	50
NC1CCC(CC2CCC(N(C(=O)CCCc3c[nH]c4ccccc34)C3CCc4ccccc4C3)CC2)CC1 (centres undefined)	4.5	12	44	278
NC1CCC(CC2CCC(N(Cc3ccccc3)C(=O)CCCc3c[nH]c4ccccc34)CC2)CC1 (stereo in doubt)	1.4	2.6	105	15
N[C@H]1CC[C@H](NC(=O)N[C@H]2CC[C@H](N(Cc3ccccc3)C(=O)CCCc3c[nH]c4ccccc34)CC2)CC1	11	25	176	99
NCc1ccc(CN(Cc2ccc3ccccc3c2)C(=O)CCCc2c[nH]c3ccccc23)cc1	4	11	17	40
NC1CCCC(N(Cc2ccccc2)C(=O)CCCc2c[nH]c3ccccc23)C1 (centres undefined)	3.3	5.7	18	30
NC1CCC(CC2CCC(N(Cc3ccccc3Br)C(=O)CCCc3c[nH]c4ccccc34)CC2)CC1 (centres undefined)	3.6	4.4	9.1	80
NCCCCCN(CCCc1ccccc1)C(=O)Cc1c[nH]c2ccccc12	12	77	7.9	47
COc1ccc(CN(C(=O)CCCc2c(Cc3ccc(O)cc3)[nH]c3ccccc23)C2CCC(CC3CCC(N)CC3)CC2)cc1OC (centres undefined)	1.9	2.4	11	23
COC(=O)c1ccc(CN(C(=O)CCCc2c[nH]c3ccccc23)C2CCC(CC3CCC(N)CC3)CC2)cc1 (centres undefined)	2.1	2.2	9.6	14
NCCCCN(Cc1ccccc1)C(=O)CCCc1c(Cc2ccc(O)cc2)[nH]c2ccccc12	7.7	6.2	4.6	16
NC1CCC(CC2CCC(N(C/C(Cl)=C/c3ccccc3)C(=O)COc3ccc4ccccc4c3)CC2)CC1 (stereo in doubt; 10b-36-14)	1.5	3.7	5.5	23
NCCCN(Cc1ccc2ccccc2c1)C(=O)Cc1ccc2ccccc2c1	5.9	16	267	12
NCc1ccc(CN(C/C=C/c2ccccc2)C(=O)CCCc2c[nH]c3ccccc23)cc1	2.6	7.3	9.7	44
NCCN(C(=O)Cc1c[nH]c2ccccc12)C1CCc2ccccc2C1 (centres undefined)	4	42	29	16
NCCCCCN(C/C=C\c1ccccc1)C(=O)CCc1c(Cc2ccc(O)cc2)[nH]c2ccccc12	3.3	7.1	6.7	27
